Read-outs that look alike come from different tables or passages of the source.
Assays:
[1] = target: human orexin-2 receptor (Homo sapiens (Human), UniProt O43614); assay: Intracellular calcium measurement (FLIPR), CHO cells expressing human orexin-2 receptor, 3 nM orexin-A; type: cell-based; conditions: read-out: IC50 OX2
Outline: (§1)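 HBSS buffer with 0.1% BSA, NaHCO3 and 20 mM HEPES carries both compounds and agonist. Dye: fluo-4 AM (3 μM) with 5 mM probenecid. Compound exposure 120 min; peak signal scored against uninhibited orexin-A response.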

[2] = target: orexin-1 (Homo sapiens (Human), UniProt O43613); assay: Intracellular calcium measurement (FLIPR), CHO cells expressing human orexin-1 receptor, 3 nM orexin-A; type: cell-based; conditions: read-out: IC50 OX1
Chain of orexin-1 (O43613 whole entry): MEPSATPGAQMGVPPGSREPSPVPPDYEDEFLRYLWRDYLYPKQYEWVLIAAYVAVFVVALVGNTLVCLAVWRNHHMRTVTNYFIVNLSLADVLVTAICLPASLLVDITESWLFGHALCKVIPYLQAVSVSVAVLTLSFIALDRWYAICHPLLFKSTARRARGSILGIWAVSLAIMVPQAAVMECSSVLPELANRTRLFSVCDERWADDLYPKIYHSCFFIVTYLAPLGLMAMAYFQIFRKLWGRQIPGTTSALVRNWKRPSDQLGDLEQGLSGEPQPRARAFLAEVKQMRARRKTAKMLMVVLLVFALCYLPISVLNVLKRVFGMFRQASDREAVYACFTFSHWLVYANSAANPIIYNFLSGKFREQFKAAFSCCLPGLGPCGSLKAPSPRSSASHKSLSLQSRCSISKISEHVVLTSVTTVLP
Outline: as §1

[3] = CHO cells expressing human orexin-2 receptor, FLIPR, 3 nM orexin-A, geometric mean if determined several times
[4] = CHO cells expressing human orexin-1 receptor, FLIPR, 3 nM orexin-A, geometric mean if determined several times

Chain of human orexin-2 receptor (O43614 whole entry): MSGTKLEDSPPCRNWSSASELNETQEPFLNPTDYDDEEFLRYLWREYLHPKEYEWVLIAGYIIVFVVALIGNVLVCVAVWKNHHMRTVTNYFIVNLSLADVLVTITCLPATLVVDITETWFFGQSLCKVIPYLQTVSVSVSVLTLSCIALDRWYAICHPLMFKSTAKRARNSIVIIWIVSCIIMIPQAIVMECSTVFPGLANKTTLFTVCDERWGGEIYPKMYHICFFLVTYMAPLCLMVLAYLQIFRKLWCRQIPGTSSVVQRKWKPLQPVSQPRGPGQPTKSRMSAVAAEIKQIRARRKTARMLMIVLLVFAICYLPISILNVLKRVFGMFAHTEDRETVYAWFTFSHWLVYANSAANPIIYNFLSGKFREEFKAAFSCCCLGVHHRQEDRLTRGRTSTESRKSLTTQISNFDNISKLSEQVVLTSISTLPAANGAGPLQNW

| Compound | IC50 [1, 3] | IC50 [2, 4] | IC50 [2] | IC50 [1] |
| --- | --- | --- | --- | --- |
| O=C(c1ccc(F)cc1-n1nccn1)N1CCC[C@H]1c1nc(-c2ccccc2OC(F)(F)F)no1 [compound 163, (4-Fluoro-2-[1,2,3]triazol-2-yl-phenyl)-{(S)-2-[3-(2-trifluoromethoxy-phenyl)-[1,2,4]oxadiazol-5-yl]-pyrrolidin-1-yl}-methanone] | 0.087 µM | 0.495 µM |  |  |
| Cc1ccc(-n2nccn2)c(C(=O)N2CCC[C@H]2c2nc(-c3ccccc3OC(F)(F)F)co2)c1 [Example 460, (5-Methyl-2-[1,2,3]triazol-2-yl-phenyl)-{(S)-2-[4-(2-trifluoromethoxy-phenyl)-oxazol-2-yl]-pyrrolidin-1-yl}-methanone] | 0.016 µM | 0.01 µM |  |  |
| Cc1cccc(-c2nc([C@@H]3CCCN3C(=O)c3ccc(Cl)cc3-n3nccn3)no2)c1C [compound 397] | 0.005 µM |  | 0.085 µM |  |
| COc1cc(C)cc(-c2nc([C@@H]3CCCN3C(=O)c3cc(C)ccc3-n3nccn3)no2)c1 [compound 409, {(S)-2-[5-(3-Methoxy-5-methyl-phenyl)-[1,2,4]oxadiazol-3-yl]-pyrrolidin-1-yl}-(5-methyl-2-[1,2,3]triazol-2-yl-phenyl)-methanone] | 0.012 µM | 0.045 µM |  |  |
| COc1cc(Cl)cc(-c2nc([C@@H]3CCCN3C(=O)c3cc(C)ccc3-n3nccn3)no2)n1 [compound 316, {(S)-2-[5-(4-Chloro-6-methoxy-pyridin-2-yl)-[1,2,4]oxadiazol-3-yl]-pyrrolidin-1-yl}-(5-methyl-2-[1,2,3]triazol-2-yl-phenyl)-methanone] | 0.019 µM | 0.054 µM |  |  |
| Cc1ccc(-n2nccn2)c(C(=O)N2CCC[C@H]2c2nnc(-c3ccccc3OC(F)(F)F)[nH]2)c1 [compound 465, (5-Methyl-2-[1,2,3]triazol-2-yl-phenyl)-{(S)-2-[5-(2-trifluoromethoxy-phenyl)-4H-[1,2,4]triazol-3-yl]-pyrrolidin-1-yl}-methanone] | 0.01 µM | 0.076 µM |  |  |
| COc1ccc(-n2nccn2)c(C(=O)N2CCC[C@H]2c2nc(-c3ccccc3OC(F)(F)F)no2)c1F [compound 144, (2-Fluoro-3-methoxy-6-[1,2,3]triazol-2-yl-phenyl)-{(S)-2-[3-(2-trifluoromethoxy-phenyl)-[1,2,4]oxadiazol-5-yl]-pyrrolidin-1-yl}-methanone] | 0.083 µM | 0.026 µM |  |  |
| COc1cc(C(=O)N2CCC[C@H]2c2nnc(-c3cccc(Cl)c3OC)[nH]2)c(-n2nccn2)cc1C [compound 490, {(S)-2-[5-(3-Chloro-2-methoxy-phenyl)-4H-[1,2,4]triazol-3-yl]-pyrrolidin-1-yl}-(5-methoxy-4-methyl-2-[1,2,3]triazol-2-yl-phenyl)-methanone] | 0.002 µM | 0.12 µM |  |  |
| COc1ccc(C(=O)N2CCC[C@H]2c2nc(-c3cccc(Cl)c3C)no2)c(-n2nccn2)c1 [compound 118] |  |  | 0.26 µM | 0.048 µM |
| O=C(c1cccc(F)c1-n1cccn1)N1CCC[C@H]1c1nc(-c2ccccc2OC(F)(F)F)no1 [compound 164, (3-Fluoro-2-pyrazol-1-yl-phenyl)-{(S)-2-[3-(2-trifluoromethoxy-phenyl)-[1,2,4]oxadiazol-5-yl]-pyrrolidin-1-yl}-methanone] | 0.171 µM | 0.333 µM |  |  |
| Cc1ccc(-n2nccn2)c(C(=O)N2CCC[C@H]2c2cc(-c3ccccc3)n[nH]2)c1 [Example 530, (5-Methyl-2-[1,2,3]triazol-2-yl-phenyl)-[(S)-2-(5-phenyl-2H-pyrazol-3-yl)-pyrrolidin-1-yl]-methanone] | 0.222 µM | 0.386 µM |  |  |
| CCc1ccccc1-c1nc([C@@H]2CCCN2C(=O)c2cc(OC)c(C)cc2-n2nccn2)no1 [compound 404, {(S)-2-[5-(2-Ethyl-phenyl)-[1,2,4]oxadiazol-3-yl]-pyrrolidin-1-yl}-(5-methoxy-4-methyl-2-[1,2,3]triazol-2-yl-phenyl)-methanone] | 0.003 µM | 0.023 µM |  |  |
| CCOc1c(F)cccc1-c1noc([C@@H]2CCCN2C(=O)c2cc(OC)c(F)cc2-n2nccn2)n1 [compound 292, {(S)-2-[3-(2-Ethoxy-3-fluoro-phenyl)-[1,2,4]oxadiazol-5-yl]-pyrrolidin-1-yl}-(4-fluoro-5-methoxy-2-[1,2,3]triazol-2-yl-phenyl)-methanone] | 0.052 µM | 0.348 µM |  |  |
| COc1c(F)cccc1-c1cc([C@@H]2CCCN2C(=O)c2cc(C)ccc2-n2nccn2)on1 [compound 429, {(S)-2-[3-(3-Fluoro-2-methoxy-phenyl)-isoxazol-5-yl]-pyrrolidin-1-yl}-(5-methyl-2-[1,2,3]triazol-2-yl-phenyl)-methanone] | 0.026 µM | 0.098 µM |  |  |
| CCOc1ncccc1-c1noc([C@@H]2CCCN2C(=O)c2cc(F)cc(C)c2-n2nccn2)n1 [compound 225, {(S)-2-[3-(2-Ethoxy-pyridin-3-yl)-[1,2,4]oxadiazol-5-yl]-pyrrolidin-1-yl}-(5-fluoro-3-methyl-2-[1,2,3]triazol-2-yl-phenyl)-methanone] | 0.6 µM | 0.964 µM |  |  |
| O=C(c1cccc(F)c1-c1ccn[nH]1)N1CCC[C@H]1c1nc(-c2ccccc2OC(F)(F)F)no1 [compound 168, [3-Fluoro-2-(2H-pyrazol-3-yl)-phenyl]-{(S)-2-[3-(2-trifluoromethoxy-phenyl)-[1,2,4]oxadiazol-5-yl]-pyrrolidin-1-yl}-methanone] | 0.01 µM | 0.027 µM |  |  |
| CCOc1ncccc1-c1nnc([C@@H]2CCCN2C(=O)c2ccc(Cl)cc2-n2nccn2)[nH]1 [compound 481] | 0.021 µM | 0.026 µM |  |  |
| COc1cc(C(=O)N2CCC[C@H]2c2nc(-c3cccc(F)c3OC)no2)c(-n2nccn2)cc1Cl [compound 282] | 0.001 µM | 0.044 µM |  |  |
| Cc1ccc(-n2nccn2)c(C(=O)N2CCC[C@H]2c2ncn(-c3ccccc3)n2)c1 [Example 535, (5-Methyl-2-[1,2,3]triazol-2-yl-phenyl)-[(S)-2-(1-phenyl-1H-[1,2,4]triazol-3-yl)-pyrrolidin-1-yl]-methanone] | 0.363 µM | 0.047 µM |  |  |
| Cc1cc(-n2nccn2)c(C(=O)N2CCC[C@H]2c2noc(-c3cccc(Cl)c3C)n2)cc1Cl [compound 371] | 0.007 µM |  | 0.018 µM |  |
| COc1cc(C(=O)N2CCC[C@H]2c2noc(-c3cccc(Cl)c3C)n2)c(-n2nccn2)cc1Cl [compound 367] | 0.002 µM | 0.02 µM |  |  |

Second part, led by results:

| IC50 [1, 3] | IC50 [2, 4] | Compound | IC50 [2] | IC50 [1] |
| --- | --- | --- | --- | --- |
| 0.536 µM | > 5.04 µM | Cc1ccc(-n2nccn2)c(C(=O)N2CCC[C@H]2c2nc(-c3cnccc3C)no2)c1 [compound 58, {(S)-2-[3-(4-Methyl-pyridin-3-yl)-[1,2,4]oxadiazol-5-yl]-pyrrolidin-1-yl}-(5-methyl-2-[1,2,3]triazol-2-yl-phenyl)-methanone] |  |  |
| 0.536 µM | 1.74 µM | COc1cccc(-c2nnc([C@@H]3CCCN3C(=O)c3cc(C)ccc3-n3nccn3)o2)c1 [Example 456, {(S)-2-[5-(3-Methoxy-phenyl)-[1,3,4]oxadiazol-2-yl]-pyrrolidin-1-yl}-(5-methyl-2-[1,2,3]triazol-2-yl-phenyl)-methanone] |  |  |
| 0.003 µM | 0.006 µM | CCOc1ncccc1-c1noc([C@@H]2CCCN2C(=O)c2cc(C)c(C)cc2-n2nccn2)n1 [compound 212, (4,5-Dimethyl-2-[1,2,3]triazol-2-yl-phenyl)-{(S)-2-[3-(2-ethoxy-pyridin-3-yl)-[1,2,4]oxadiazol-5-yl]-pyrrolidin-1-yl}-methanone] |  |  |
| 0.009 µM | 0.026 µM | CCOc1ccccc1-c1noc([C@@H]2CCCN2C(=O)c2cc(OC)ccc2-n2nccn2)n1 [compound 261, {(S)-2-[3-(2-Ethoxy-phenyl)-[1,2,4]oxadiazol-5-yl]-pyrrolidin-1-yl}-(5-methoxy-2-[1,2,3]triazol-2-yl-phenyl)-methanone] |  |  |
| 0.095 µM | 0.182 µM | CCOc1ncccc1-c1nnc([C@@H]2CCCN2C(=O)c2cc(C)ccc2-n2nccn2)o1 [Example 450, {(S)-2-[5-(2-Ethoxy-pyridin-3-yl)-[1,3,4]oxadiazol-2-yl]-pyrrolidin-1-yl}-(5-methyl-2-[1,2,3]triazol-2-yl-phenyl)-methanone] |  |  |
| 0.076 µM | 0.661 µM | Cc1ccc(-n2nccn2)c(C(=O)N2CCC[C@H]2c2noc(-c3cnc4sccn34)n2)c1 [compound 313, [(S)-2-(5-Imidazo[2,1-b]thiazol-5-yl-[1,2,4]oxadiazol-3-yl)-pyrrolidin-1-yl]-(5-methyl-2-[1,2,3]triazol-2-yl-phenyl)-methanone] |  |  |
| 0.002 µM | 0.027 µM | COc1cc(C(=O)N2CCC[C@H]2c2nc(-c3cccc(F)c3OC)no2)c(-n2nccn2)cc1C [compound 201, {(S)-2-[3-(3-Fluoro-2-methoxy-phenyl)-[1,2,4]oxadiazol-5-yl]-pyrrolidin-1-yl}-(5-methoxy-4-methyl-2-[1,2,3]triazol-2-yl-phenyl)-methanone] |  |  |
| 0.088 µM | 0.343 µM | Cc1ccc(-n2nccn2)c(C(=O)N2CCC[C@H]2c2ncc(-c3cccc(Cl)c3C)[nH]2)c1 [compound 525, {(S)-2-[5-(3-Chloro-2-methyl-phenyl)-1H-imidazol-2-yl]-pyrrolidin-1-yl}-(5-methyl-2-[1,2,3]triazol-2-yl-phenyl)-methanone] |  |  |
| 0.035 µM | 0.055 µM | Cc1cc(C)c(-n2nccn2)c(C(=O)N2CCC[C@H]2c2nc(-c3ccccc3OC(F)(F)F)no2)c1 [compound 170, (3,5-Dimethyl-2-[1,2,3]triazol-2-yl-phenyl)-{(S)-2-[3-(2-trifluoromethoxy-phenyl)-[1,2,4]oxadiazol-5-yl]-pyrrolidin-1-yl}-methanone] |  |  |
| 0.04 µM | 0.901 µM | Cc1ccc(-n2nccn2)c(C(=O)N2CCC[C@H]2c2nc(-c3c(C)cccc3F)no2)c1 [compound 76, {(S)-2-[3-(2-Fluoro-6-methyl-phenyl)-[1,2,4]oxadiazol-5-yl]-pyrrolidin-1-yl}-(5-methyl-2-[1,2,3]triazol-2-yl-phenyl)-methanone] |  |  |
